Reference: patent publication US20250325497A1, “OPHTHALMIC COMPOSITION COMPRISING RESVERATROL FOR TREATING DRY EYE SYNDROME” (Laboratoires THEA, priority 2022, published 2025)

Test system: reconstituted Human Corneal Epithelium (HCE)
Test: Preliminary cytotoxicity: modified MTT viability test on reconstituted HCE
Format: cell-based
Details: for MTT: Cellular viability (%): relative to negative control
Procedure: An initial study on human corneal epithelium (HCE) was conducted to check the cytotoxicity of a selection of tear substitutes in order to further assess their protection against superficial corneal epithelium oxidative stress damages induced by UVA+B light (290-400 nm).
The preliminary cytotoxicity was performed after 4 h acute exposure and after 8 h exposure (repeated twice a day with the final readout the day after; 0.015 J/cm^2) to tear substitutes using 2 assays: MTT test and TUNEL assay.
The preliminary cytotoxicity was tested in vitro for the following tear substitutes: • Composition according to Example I • Visu XL (market reference containing 0.1% Coenzyme Q10, 0.1% cross-linked hyaluronic acid (HA), 0.5% Vitamin E TPGS; pH 6.9) on the HCE model compared to Benzalkonium Chloride (BAK) 0.1% solution (positive control) and saline solution (NaCl 0.9%; negative control).
An EPISKIN reconstituted Human Corneal Epithelium (HCE) of 0.5 cm^2 was used for the evaluation. Epithelial human Immortalized cells (HICEC) were deposed on a polycarbonate filter and cultured at the air-liquid interface for 5 days in a chemically defined medium in order to form a structured epithelium. The inserts containing the tissues at day 5 (thickness: 55 μm; 5.5 cell layers) were shipped at room temperature in a multi-well plate filled with an agarose nutrient solution in which they were embedded.
The HCEs were placed in 6 well plates with 1 mL maintenance medium overnight in incubator CO2 at 37° C. and 90% humidity. The tissues were then used the day after, following acute 4 h exposure and 8 h repeated exposure and overnight protocol. […]
Two exposure protocols were carried on: • acute exposure protocol (4 h): 4 h exposure followed by tissues rinsing • repeated exposure and overnight protocol (8 h+overnight): twice daily exposure, with at least 4 hours between the two treatments and readout after overnight incubation. […]
The Accuracy of the spectro-photometrical measurements are in the range between 0 and 2 OD: <+/−(1%+10 mOD). The Raw data of OD are directly recorded in the Microplate autoreader (TECAN INFINITE M-200) further processed by Software Magellan 6.5.
The mean of blank OD has been subtracted to every single OD value. The viability of each biological replicate has been calculated dividing the respective OD mean for the optical density average of the negative control (NC) Biological Replicates. The viability % mean of tissues treated with the same substance has been calculated. […]
Test substance meets the acceptance criteria if the Standard Deviation value (SD) of the cell viability % (expressed as percentage compared to NC) between the 2 tissue replicates is <18%.

Benzalkonium Chloride [BAK 0.1%] was tested, and the “MTT: Cellular viability (%)” value (4 H acute exposure) was 9.98%, the “MTT: Cellular viability (%)” value (8 H+ OVERNIGHT repeated exposure) was 0.95% and the “Cytotoxicity by MTT test (in words)” value (4 h acute exposure) was “severe cytotoxicity”. For the same substance, the “Cytotoxicity by MTT test (in words)” value (8 h followed by overnight incubation, cut-off 60% cell viability) was “severe cytotoxicity”.
